row,Compound,melting point
1,"CC(C)N(C)Cc1cnnn1-c1cccc(C2=Nc3cc(N(C)C(C)C)c(Cl)cc3NC(=O)C2)c1 [Example 148, 8-Chloro-7-(isopropyl-methyl-amino)-4-(3-{5-[(isopropyl-methyl-amino)-methyl]-[1,2,3]triazol-1-yl}-phenyl)-1,3-dihydro-benzo[b][1,4]diazepin-2-one]",180 °C
2,"CC(C)CNc1cc2c(cc1C(F)(F)F)NC(=O)CC(c1cccc(-n3ccnc3)c1)=N2 [Example 177, 4-(3-Imidazol-1-yl-phenyl)-7-isobutylamino-8-trifluoromethyl-1,3-dihydro-benzo[b][1,4]diazepin-2-one]",221 °C
3,"CN(C)c1cc2c(cc1C(F)(F)F)NC(=O)CC(c1cccc(-n3cnnc3)c1)=N2 [Example 65, 7-Dimethylamino-4-(3-[1,2,4]triazol-4-yl-phenyl)-8-trifluoromethyl-1,3-dihydro-benzo[b][1,4]diazepin-2-one]",247 to 250 °C
4,"CC(C)CN(C)Cc1cnnn1-c1cccc(C2=Nc3cc(N(C)C(C)C)c(Cl)cc3NC(=O)C2)c1 [Example 149, 8-Chloro-4-(3-{5-[(isobutyl-methyl-amino)-methyl]-[1,2,3]triazol-1-yl}-phenyl)-7-(isopropyl-methyl-amino)-1,3-dihydro-benzo[b][1,4]diazepin-2-one]",182 °C
5,"Cc1cc2c(cc1N(C)CC(C)C)N=C(c1cccc(-n3ncnc3CNC3CC3)c1)CC(=O)N2 [Example 159, 4-[3-(5-Cyclopropylaminomethyl-[1,2,4]triazol-1-yl)-phenyl]-7-(isobutyl-methyl-amino)-8-methyl-1,3-dihydro-benzo[b][1,4]diazepin-2-one]",114 °C
6,"CCCN(C)c1cc2c(cc1C)NC(=O)CC(c1cccc(-c3cc(C)no3)c1)=N2 [Example 97, 8-Methyl-4-[3-(3-methyl-isoxazol-5-yl)-phenyl]-7-(methyl-propyl-amino)-1,3-dihydro-benzo[b][1,4]diazepin-2-one]",194 °C
7,"CN(C)c1cc2c(cc1Cl)NC(=O)CC(c1ccnc(C#N)c1)=N2 [Example 15, 4-(7-Chloro-8-dimethylamino-4-oxo-4,5-dihydro-3H-benzo[b][1,4]diazepin-2-yl)-pyridine-2-carbonitrile]",216 °C
8,"O=C1CC(c2cccc(-n3nncc3CO)c2)=Nc2cc(N3CCCC3)c(C(F)(F)F)cc2N1 [Example 41, 4-[3-(5-Hydroxymethyl-[1,2,3]triazol-1-yl)-phenyl]-7-pyrrolidin-1-yl-8-trifluoromethyl-1,3-dihydro-benzo[b][1,4]diazepin-2-one]",134 °C
9,"Cc1noc(-c2cccc(C3=Nc4cc(N(C)C)c(Cl)cc4NC(=O)C3)c2)c1CO [Example 35, 8-Chloro-7-dimethylamino-4-[3-(4-hydroxymethyl-3-methyl-isoxazol-5-yl)-phenyl]-1,3-dihydro-benzo[b][1,4]diazepin-2-one]",232 to 233 °C
10,"Cc1cc(-c2cccc(C3=Nc4cc(N(C)CC(C)C)c(Cl)cc4NC(=O)C3)c2)on1 [Example 102, 8-Chloro-7-(isobutyl-methyl-amino)-4-[3-(3-methyl-isoxazol-5-yl)-phenyl]-1,3-dihydro-benzo[b][1,4]diazepin-2-one]",194 °C
11,"Cc1cc(-c2cccc(C3=Nc4cc(N(C)C)c(Cl)cc4NC(=O)C3)c2)on1 [Example 6, 8-Chloro-7-dimethylamino-4-[3-(3-methyl-isoxazol-5-yl)-phenyl]-1,3-dihydro-benzo[b][1,4]diazepin-2-one]",212 to 215 °C
12,"CN(C)c1cc2c(cc1C#Cc1ccccc1)NC(=O)CC(c1cccc(-n3ccnn3)c1)=N2 [Example 5, 7-Dimethylamino-8-phenylethynyl-4-(3-[1,2,3]triazol-1-yl-phenyl)-1,3-dihydro-benzo[b][1,4]diazepin-2-one]",185 to 186 °C
13,"Cc1cc(-c2cccc(C3=Nc4cc(N5CCC5)c(C(F)(F)F)cc4NC(=O)C3)c2)on1 [Example 62, 7-Azetidin-1-yl-4-[3-(3-methyl-isoxazol-5-yl)-phenyl]-8-trifluoromethyl-1,3-dihydro-benzo[b][1,4]diazepin-2-one]",239 °C (dec.)
14,"CC(C)N(C)c1cc2c(cc1C(F)(F)F)NC(=O)CC(c1cccc(-n3nncc3CO)c1)=N2 [Example 119, 4-[3-(5-Hydroxymethyl-[1,2,3]triazol-1-yl)-phenyl]-7-(isopropyl-methyl-amino)-8-trifluoromethyl-1,3-dihydro-benzo[b][1,4]diazepin-2-one]",234 °C
15,"CN(C)Cc1cnnn1-c1cccc(C2=Nc3cc(N(C)C)c(C(F)(F)F)cc3NC(=O)C2)c1 [Example 38, 7-Dimethylamino-4-[3-(5-dimethylaminomethyl-[1,2,3]triazol-1-yl)-phenyl]-8-trifluoromethyl-1,3-dihydro-benzo[b][1,4]diazepin-2-one]",200 °C
16,"Cc1cc2c(cc1N(C)CC(C)C)N=C(c1cccc(-n3ncnc3CO)c1)CC(=O)N2 [Example 168, 4-[3-(5-Hydroxymethyl-[1,2,4]triazol-1-yl)-phenyl]-7-(isobutyl-methyl-amino)-8-methyl-1,3-dihydro-benzo[b][1,4]diazepin-2-one]",191 °C
17,"CC(C)N(C)c1cc2c(cc1C(F)(F)F)NC(=O)CC(c1cccc(-n3nncc3CNC3CC3)c1)=N2 [Example 157, 4-[3-(5-Cyclopropylaminomethyl-[1,2,3]triazol-1-yl)-phenyl]-7-(isopropyl-methyl-amino)-8-trifluoromethyl-1,3-dihydro-benzo[b][1,4]diazepin-2-one]",178 °C
18,"Cc1cc2c(cc1N(C)CC(C)C)N=C(c1cccc(-n3nncc3CO)c1)CC(=O)N2 [Example 132, 4-[3-(5-Hydroxymethyl-[1,2,3]triazol-1-yl)-phenyl]-7-(isobutyl-methyl-amino)-8-methyl-1,3-dihydro-benzo[b][1,4]diazepin-2-one]",198 °C
19,"Cc1cc(-c2cc(C3=Nc4cc(N(C)C)c(Cl)cc4NC(=O)C3)ccn2)on1 [Example 10, 8-Chloro-7-dimethylamino-4-[2-(3-methyl-isoxazol-5-yl)-pyridin-4-yl]-1,3-dihydro-benzo[b][1,4]diazepin-2-one]",> 250 °C
20,"CCCN(C)c1cc2c(cc1Cl)NC(=O)CC(c1cccc(-n3ncnc3CNC3CC3)c1)=N2 [Example 167, 8-Chloro-4-[3-(5-cyclopropylaminomethyl-[1,2,4]triazol-1-yl)-phenyl]-7-(methyl-propyl-amino)-1,3-dihydro-benzo[b][1,4]diazepin-2-one]",123 °C
21,"CC(C)c1nc(-c2cccc(C3=Nc4cc(N(C)C)c(C(F)(F)F)cc4NC(=O)C3)c2)c[nH]1 [Example 221, 7-Dimethylamino-4-[3-(2-isopropyl-1H-imidazol-4-yl)-phenyl]-8-trifluoromethyl-1,3-dihydro-benzo[b][1,4]diazepin-2-one]",150 °C (dec.)
22,"Cc1cc2c(cc1N(C)CC(C)C)N=C(c1cccc(-n3nncc3CNCC3CC3)c1)CC(=O)N2 [Example 143, 4-(3-{5-[(Cyclopropylmethyl-amino)-methyl]-[1,2,3]triazol-1-yl}-phenyl)-7-(isobutyl-methyl-amino)-8-methyl-1,3-dihydro-benzo[b][1,4]diazepin-2-one]",184 °C

# More lines, now with the values ahead:
row,melting point,Compound
1,234 to 237 °C,"CN(C)c1cc2c(cc1C(F)(F)F)NC(=O)CC(c1cccc(-c3nnc(CCO)s3)c1)=N2 [Example 205, 7-Dimethylamino-4-{3-[5-(2-hydroxy-ethyl)-[1,3,4]thiadiazol-2-yl]-phenyl}-8-trifluoromethyl-1,3-dihydro-benzo[b][1,4]diazepin-2-one]"
2,207 to 208 °C,"Cc1noc(-c2cccc(C3=Nc4cc(N(C)C)c(C(F)(F)F)cc4NC(=O)C3)c2)c1CO [Example 69, 7-Dimethylamino-4-[3-(4-hydroxymethyl-3-methyl-isoxazol-5-yl)-phenyl]-8-trifluoromethyl-1,3-dihydro-benzo[b][1,4]diazepin-2-one]"
3,187 °C,"CN(C)c1cc2c(cc1F)NC(=O)CC(c1cccc(-c3cc(CO)no3)c1)=N2 [Example 44, 7-Dimethylamino-8-fluoro-4-[3-(3-hydroxymethyl-isoxazol-5-yl)-phenyl]-1,3-dihydro-benzo[b][1,4]diazepin-2-one]"
4,222 to 224 °C,"CCCN(C)c1cc2c(cc1C)NC(=O)CC(c1cccc(-c3nc(CO)cs3)c1)=N2 [Example 199, 4-[3-(4-Hydroxymethyl-thiazol-2-yl)-phenyl]-8-methyl-7-(methyl-propyl-amino)-1,3-dihydro-benzo[b][1,4]diazepin-2-one]"
5,166 to 167 °C,"CCCN(C)c1cc2c(cc1Cl)NC(=O)CC(c1cccc(-c3nc(CO)co3)c1)=N2 [Example 188, 8-Chloro-4-[3-(4-hydroxymethyl-oxazol-2-yl)-phenyl]-7-(methyl-propyl-amino)-1,3-dihydro-benzo[b][1,4]diazepin-2-one]"
6,200 to 202 °C,"CCCN(C)c1cc2c(cc1C)NC(=O)CC(c1cccc(-c3nc(CO)co3)c1)=N2 [Example 200, 4-[3-(4-Hydroxymethyl-oxazol-2-yl)-phenyl]-8-methyl-7-(methyl-propyl-amino)-1,3-dihydro-benzo[b][1,4]diazepin-2-one]"
7,200 °C (dec.),"CN(C)c1cc2c(cc1C(F)(F)F)NC(=O)CC(c1cccc(-c3cscn3)c1)=N2 [Example 209, 7-Dimethylamino-4-(3-thiazol-4-yl-phenyl)-8-trifluoromethyl-1,3-dihydro-benzo[b][1,4]diazepin-2-one]"
8,198 to 199 °C,"CN(C)c1cc2c(cc1C(F)(F)F)NC(=O)CC(c1cccc(-c3nc(CO)cs3)c1)=N2 [Example 201, 7-Dimethylamino-4-[3-(4-hydroxymethyl-thiazol-2-yl)-phenyl]-8-trifluoromethyl-1,3-dihydro-benzo[b][1,4]diazepin-2-one]"
9,177 to 180 °C,"CCCN(C)c1cc2c(cc1C(F)(F)F)NC(=O)CC(c1cccc(-c3nc(CO)cs3)c1)=N2 [Example 203, 4-[3-(4-Hydroxymethyl-thiazol-2-yl)-phenyl]-7-(methyl-propyl-amino)-8-trifluoromethyl-1,3-dihydro-benzo[b][1,4]diazepin-2-one]"
